Consider one compound from patent publication US9090617B1, “Agonists of Src homology-2 containing protein tyrosine phosphatase-1 and treatment methods using the same” (National Taiwan University, priority 2011, dated 2015).

Data set [1] concerns p-STAT3, cyclin D1, survivin, Mc1-1. Kind of data set: Western blot of STAT3-related proteins in HCC cells. To be noted: HCC cells, 24 h. Format: cell-based. How it is done:
Cells were treated with various compounds at 5 and 10 μM for 24 h. Cell lysates were analyzed by western blot.
HCC cells treated with SC-43 (10 μM for 24 h) were collected with RIPA lysis buffer. Antibodies for immunoblotting such as cyclin D1 was purchased from Santa Cruz Biotechnology. Other antibodies such as survivin, phospho-STAT3 (Tyr705), STAT3, Mc1-1, SOCS1, and SOCS3 were from Cell Signaling.
(In western blotting, separated proteins are transferred to a membrane and probed.)

In data set [2] the target is SHP-1 (Homo sapiens, UniProt P29350). Kind of data set: SHP-1 activity in treated HCC cells (tyrosine phosphatase assay kit). Format: cell-based. The arrangement: endogenous in cells. To be noted: SK-Hep1 cells. From the text: The RediPlate 96 EnzChek® Tyrosine Phosphatase Assay Kit (R-22067) was used for SHP-1 activity assay (Molecular Probes, Carlsbad, Calif.). The Raf-1 kinase cascade assay kit (Upstate-Millipore, Billerica, Mass.) was used to examine the Raf-1 kinase activity. The JAK2 kinase activity kit was purchased from Reaction Biology Corp. (Malvern, Pa.).
Chain of SHP-1 (P29350 whole entry): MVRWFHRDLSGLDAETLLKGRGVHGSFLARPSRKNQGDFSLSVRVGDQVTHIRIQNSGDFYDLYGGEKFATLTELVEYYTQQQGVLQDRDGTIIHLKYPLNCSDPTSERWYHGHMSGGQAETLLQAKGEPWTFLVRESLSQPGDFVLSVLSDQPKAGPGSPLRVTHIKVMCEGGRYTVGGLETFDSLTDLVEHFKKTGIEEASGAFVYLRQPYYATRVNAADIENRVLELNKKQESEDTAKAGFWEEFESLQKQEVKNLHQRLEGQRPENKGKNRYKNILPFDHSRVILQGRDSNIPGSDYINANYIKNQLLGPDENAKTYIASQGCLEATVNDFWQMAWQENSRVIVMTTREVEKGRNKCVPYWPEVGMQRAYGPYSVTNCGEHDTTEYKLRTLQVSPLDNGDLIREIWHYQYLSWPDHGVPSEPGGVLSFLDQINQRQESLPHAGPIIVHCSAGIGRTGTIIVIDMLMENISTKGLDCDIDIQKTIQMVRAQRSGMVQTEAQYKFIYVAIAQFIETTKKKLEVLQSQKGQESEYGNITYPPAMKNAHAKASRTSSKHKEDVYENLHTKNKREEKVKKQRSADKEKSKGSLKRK

The test system of data set [3] is Huh-7 xenograft tumor. As to the kind of experiment: Huh-7 xenograft with SC-59 or sorafenib and radiation. Format: in vivo, mice. How it is done: (A) The effects of SC-59 and radiation on tumor growth. Each mouse was inoculated subcutaneously in the right leg with […] Huh-7 cells suspended in Matrigel. When the tumor reached a volume of 400-600 mm3, mice received vehicle, 5 Gy radiation (one fraction per day) for 4 days, or 10 mg/kg SC-59 p.o. once daily, or a combination for the duration of the study. The data points indicate the mean values (n=6) and the bars indicate the standard error. There were significant differences between the combined treatment group and the vehicle control group (*, P<0.05, **, P<0.01). (B) Left, the expression of P-STAT3 in the Huh-7 tumors was analyzed by western blot. Right, quantified data for p-STAT3 to STAT3. (C) The activity of SHP-1 in Huh-7 tumors. Values are means±SD, *, P<0.05. (D) Body weight of mice after SC-59 and RT treatment. […] The data points indicate the mean values (n=6) and the bars indicate the standard error. […] (H) Body weight of mice treated with vehicle, RT, sorafenib, and combination.
To further elucidate the molecular events responsible for this synergistic effect, we examined the expression level of p-STAT3 in the tumor extract.

SMILES strings stand for the structures.

On to `Cc1ccc(NC(=O)Nc2ccc(Cl)c(C(F)(F)F)c2)cc1Oc1ccc(C#N)cc1` [SC-59, 1-(4-chloro-3-(trifluoromethyl)phenyl)-3-(3-(4-cyanophenoxy)-4-methylphenyl) urea], for which the “p-STAT3 and STAT3-related proteins (Western blot)” value in data set [1] was “downregulated phospho-STAT3 (p-STAT3) at tyrosine 705 along with its downstream molecules”. Moreover, the “phosphatase activity of SHP-1 in cells” value in data set [2] was “significantly increased the phosphatase activity of SHP-1 in SK-Hep1 cells”. Also, in data set [3] (10 mg/kg p.o. once daily plus 5 Gy radiation for 4 days), the “tumor growth with radiotherapy combination” value was “displayed significant tumor growth inhibition compared to radiotherapy or SC-59 alone”. Also, in data set [3] (Huh-7 tumors, 10 mg/kg p.o.), the “SHP-1 phosphatase activity in tumor samples” value was “induction of SHP-1 phosphatase activity was observed” and the “p-STAT3 in treated tumor samples” value is listed as “resulted in clear inhibition of p-STAT3”. Besides, in data set [3] (Huh-7 xenograft, 10 mg/kg p.o.), the body weight entry was “no significant difference in body weight”.
